From patent US4442031A, “Immunopotentiating peptides” (Hoffmann-La Roche Inc., priority 1983, dated 1984)
Where no end group is shown, it is not given here.

Legend:
[1] = system: Candida albicans ATCC 10231; experiment: Protective activity against Candida albicans infection in 5-FU immunosuppressed mice; format: in vivo; conditions: for Survivors Day 8 / Survivors Day 15: ddY mice; for Survivors at Day 8 after infection: Table 6, i.p., ten times with 5-FU, control 1/7
Procedure: In a series of examples, the compounds of formula I were tested for protective activity against opportunistic infections in immunosuppressed mice. Female ddY mice (6 weeks old) weighing about 26 g were pretreated daily for ten days with 5-fluorouracil (5-FU) (25 mg/kg/day, i.p.) and with thymosin α1 or with compounds of formula I (i.p.) at varying dosages. The mice were then infected with Candida albicans ATCC 10231 (1×10^5 cells or more) at 24 hour after the last treatment. One control group was administered 5-FU and saline solution and a second control group received neither 5-FU nor compound of formula I prior to infection with Candida albicans. The number of animals surviving eight days after infection with Candida albicans and 15 days after infection with Candida albicans is presented in the table below.
(§1) Normal mice (female ddY mice, 6 weeks old) were highly tolerant to infection with Candida albicans ATCC 10231 at relatively low dose (1-2×10^5 cells, iv.). However, when pretreated daily for ten times with 5-FU (25 mg/kg/day, ip.), the mice were susceptible to infection as shown in Table 6. […] Compound A was also shown to be active against infection with Pseudomonas aeruginosa 5E81-1 and Listeria monocytogenes EGD in the immunosuppressed mice (see Tables 7 and 8).

[2] = system: delayed-type hypersensitivity (DTH); experiment: Restoration of delayed-type hypersensitivity (DTH) decreased by 5-FU in BDF1 mice; format: in vivo; conditions: for DTH response %: % of control
Procedure: A poor prognosis is often observed in cancer patients with impaired immune response. Impaired immune response can be caused by the cancer itself, by chemotherapeutic agents, or by radiotherapy. Thus, therapeutic agents which restore impaired immune response in cancer patients are expected to play an important role in combination therapy. The restoration activity of the compounds of the invention on impaired cell-mediated immunity was determined by measuring the enhancement of delayed-type hypersensitivity (DTH), which was decreased to a great extent in mice treated with 5-fluorouracil (5-FU).
Female BDF1 mice (20-22 g, 11-12 weeks old) received (i.p. or p.o.) the compound to be tested on consecutive days one day before, concurrently with and 1 and 2 days after the 5-FU treatment. For DTH measurement, 10^8 chicken red blood cells (CRBC) were injected i.p. (or s.c. into the left hind footpad) and challenged s.c. into the right hind footpad at 3 and 7 days after the 5-FU treatment, respectively. Restoration activity was calculated by the following formula from the DTH response observed in the control group, 5-FU treated group treatment and the Test group treated both with 5-FU and the compound of the invention. Restoration activity was calculated by the formula: [formula]

[3] = Restoration of thymus weight decreased by 5-FU injection; format: in vivo, mice; conditions: for Av. thymus weight mg: 8 days after 5-FU, control 39.4, 5-FU alone 23.4; for Av. thymus weight %: % of control
Procedure: It is known that anticancer drugs suppress immunological functions by affecting immunocytes. The thymus gland, which is essential for differentiation, maturation and supply to T-cells responsible for immunological reactions, decreases markedly in weight after injection of 5-FU. […] FIfty μg/kg of Compound A administered orally was as effective as 5 μg/kg of thymosin α1 injected intraperitoneally, when the thymus weight was measured immediately after the DTH measurement at 8 days after the 5-FU injection (see Table 5).
*Seven mice per group received the test compound one day before,
concurrently with, and 1 and 2 days after 5FU injection i.p. (100 mg/kg).
The mice were injected CRBC for The DTH assay at 3 and 7 days after the
The thymus weight was measured at 8 days after the 5FU injection.

[4] = system: Pseudomonas aeruginosa 5E81-1; experiment: Protection against Pseudomonas aeruginosa infection in 5-FU immunosuppressed mice; format: in vivo; conditions: for Survivors at Day 15 after infection: Table 7, i.p., 5-FU immunosuppressed mice, control 0/30
Procedure: as §1

[5] = system: Listeria monocytogenes EGD; experiment: Protection against Listeria monocytogenes infection in 5-FU immunosuppressed mice; format: in vivo; conditions: for Survivors at Day 15 after infection: Table 8, i.p., 5-FU immunosuppressed mice, control 2/10
Procedure: as §1

[6] = system: Listeria monocytogenes EGD; experiment: Growth of Listeria monocytogenes in liver of P388 tumor-bearing mice; format: in vivo; conditions: for Growth of Bacteria (log10 /liver): Tumor-bearing CDF1 mice, i.p., seven times before infection, 3 days after infection, control 7.1
Excerpt: The immunocompetence of tumor-bearing mice is known to be frequently deficient. This is illustrated by the fact that Listeria monocytogenes EGD grew considerably in tumor-bearing mice as compared to normal mice (see Table 9). Male CDF1 mice (6 weeks old) transplanted with P388 leukemia (3×10^5 cells, footpad) were infected with Listeria monocytogenes (2×10^3 cells, iv.) 7 days after the transplant. Three days thereafter the number of the bacteria grown in liver was counted.

[7] = Example 8, 0.4 μg/kg i.p. daily for ten days with 5-FU
[8] = Example 8, 4.0 μg/kg i.p. daily for ten days with 5-FU
[9] = Example 8, 40.0 μg/kg i.p. daily for ten days with 5-FU
[10] = Example 10, 0.04 μg/kg i.p. daily for ten days with 5-FU
[11] = Example 10, 0.4 μg/kg i.p. daily for ten days with 5-FU
[12] = Example 10, 4.0 μg/kg i.p. daily for ten days with 5-FU
[13] = Example 11, 0.04 μg/kg i.p. daily for ten days with 5-FU
[14] = Example 11, 0.4 μg/kg i.p. daily for ten days with 5-FU
[15] = Example 11, 4.0 μg/kg i.p. daily for ten days with 5-FU
[16] = Table 2, 5-FU plus 0.05 μg/kg/day, i.p.
[17] = Table 2, 5-FU plus 0.5 μg/kg/day, i.p.
[18] = Table 2, 5-FU plus 5.0 μg/kg/day, i.p.
[19] = Table 3, second experiment, 5-FU plus 0.5 μg/kg/day, i.p.
[20] = Table 4, 5-FU plus 0.5 μg/kg/day p.o.
[21] = Table 4, 5-FU plus 5.0 μg/kg/day p.o.
[22] = Table 4, 5-FU plus 50.0 μg/kg/day p.o.

## KKEVVE [Compound A, L-Lysyl-L-lysyl-L-glutamyl-L-valyl-L-valyl-L-glutamic acid]
[1]; [7]
  Survivors Day 8: 6/7
  Survivors Day 15: 5/7
[1]; [8]
  Survivors Day 8: 5/7
  Survivors Day 15: 4/7
[1]; [9]
  Survivors Day 8: 5/7
  Survivors Day 15: 2/7
[1]; Example 9, 0.4 μg/kg i.p. daily for ten days with 5-FU
  Survivors Day 8: 6/7
[1]; Example 9, 4.0 μg/kg i.p. daily for ten days with 5-FU
  Survivors Day 8: 5/7
[1]; Example 9, 40.0 μg/kg i.p. daily for ten days with 5-FU
  Survivors Day 8: 4/7
[1]; [10]
  Survivors Day 8: 6/10
  Survivors Day 15: 4/10
[1]; [11]
  Survivors Day 8: 9/10
  Survivors Day 15: 8/10
[1]; [12]
  Survivors Day 8: 9/10
  Survivors Day 15: 8/10
[1]; [13]
  Survivors Day 8: 6/10
  Survivors Day 15: 4/10
[1]; [14]
  Survivors Day 8: 9/10
  Survivors Day 15: 8/10
[1]; [15]
  Survivors Day 8: 9/10
  Survivors Day 15: 8/10
[1]; 0.4 μg/kg/day
  Survivors at Day 8 after infection: 6/7
[1]; 4 μg/kg/day
  Survivors at Day 8 after infection: 5/7
[1]; 40 μg/kg/day
  Survivors at Day 8 after infection: 4/7
[2]; [16]
  Restoration Activity(%): 34.4%
  DTH response %: 70.7%
[2]; Table 2, 5-FU plus 0.05 μg/kg/day, i.p., control 10.3, 5-FU alone 5.7
  DTH response av. ± S.E. (0.1 mm): 7.3 ± 0.9 0.1 mm
[2]; [17]
  Restoration Activity(%): 66.6%
  DTH response %: 84.8%
[2]; Table 2, 5-FU plus 0.5 μg/kg/day, i.p., control 10.3, 5-FU alone 5.7
  DTH response av. ± S.E. (0.1 mm): 8.7 ± 1.2 0.1 mm
[2]; [18]
  Restoration Activity(%): 56.6%
  DTH response %: 80.7%
[2]; Table 2, 5-FU plus 5.0 μg/kg/day, i.p., control 10.3, 5-FU alone 5.7
  DTH response av. ± S.E. (0.1 mm): 8.3 ± 0.8 0.1 mm
[2]; Table 3, second experiment (control 15.1, 5-FU alone 8.1), 5-FU plus 0.5 μg/kg/day, i.p.
  DTH response av. ± S.E. (0.1 mm): 10.8 ± 0.8 0.1 mm
[2]; [19]
  Restoration Activity(%): 39.1%
  DTH response %: 71.6%
[2]; Table 4 (control 7.7, 5-FU alone 5.6), 5-FU plus 0.5 μg/kg/day p.o.
  DTH response av. ± S.E. (0.1 mm): 5.4 ± 0.9 0.1 mm
[2]; Table 4 (control 7.7, 5-FU alone 5.6), 5-FU plus 5.0 μg/kg/day p.o.
  DTH response av. ± S.E. (0.1 mm): 5.9 ± 1.0 0.1 mm
[2]; Table 4 (control 7.7, 5-FU alone 5.6), 5-FU plus 50.0 μg/kg/day p.o.
  DTH response av. ± S.E. (0.1 mm): 8.7 ± 1.2 0.1 mm
[2]; [20]
  Restoration Activity(%): 0%
  DTH response %: 70.1%
[2]; [21]
  Restoration Activity(%): 14.3%
  DTH response %: 76.6%
[2]; [22]
  Restoration Activity(%): 147.6%
  DTH response %: 113%
[2]; administered orally, Table 4
  DTH restoration activity (in words): active when administered orally
[2]; i.p., Tables 2 and 3
  DTH restoration activity (in words): equal or in some instances, greater activity than did thymosin α1 at lower doses
[3]; 50 μg/kg orally, one day before, concurrently with, and 1 and 2 days after 5-FU (100 mg/kg)
  restoration of thymus weight (in words): restore the decreased thymus weight
[3]; 5-FU (100 mg/kg i.p.) plus 5.0 μg/kg/day p.o.
  Av. thymus weight mg: 23.0 ± 1.6 mg
[3]; 5-FU (100 mg/kg i.p.) plus 50.0 μg/kg/day p.o.
  Av. thymus weight mg: 26.6 ± 1.0 mg
[3]; 5-FU plus 5.0 μg/kg/day p.o.
  Av. thymus weight %: 58.4%
[3]; 5-FU plus 50.0 μg/kg/day p.o.
  Av. thymus weight %: 67.5%
[3]; thymus weight, 5-FU plus 50.0 μg/kg/day p.o.
  Restoration Activity(%): 20.0%
[4]; 0.04 μg/kg/day
  Survivors at Day 15 after infection: 5/20
[4]; 0.4 μg/kg/day
  Survivors at Day 15 after infection: 12/30
[4]; 4 μg/kg/day
  Survivors at Day 15 after infection: 7/30
[4]; immunosuppressed mice
  activity against infection (in words): active
[5]; 0.04 μg/kg/day
  Survivors at Day 15 after infection: 8/10
[5]; 0.4 μg/kg/day
  Survivors at Day 15 after infection: 6/10
[5]; 4 μg/kg/day
  Survivors at Day 15 after infection: 6/10
[5]; immunosuppressed mice
  activity against infection (in words): active
[6]; 0.4 μg/kg/day
  Growth of Bacteria (log10 /liver): 6.0 log10 /liver
[6]; 4 μg/kg/day
  Growth of Bacteria (log10 /liver): 5.7 log10 /liver
[6]; tumor-bearing mice pretreated daily for seven times before infection
  growth of the bacteria in liver (in words): growth of the bacteria was suppressed
